Reference: patent publication US9649317B2, “Heterocyclic compounds and their use for the treatment of neurodegenerative tauopathies” (The Trustees of The University of Pennsylvania, priority 2012, dated 2017)
“Also recorded” adds a separate entry of the source. Where two headings read alike, the source gives them in different places.

Key:
[1] = Determination of plasma and brain compound concentrations; format: in vivo; conditions: mouse, 1 hour after a 5 mg/kg intraperitoneal injection
Description: For utility in neurodegenerative diseases, MT-stabilizing compounds must cross the blood-brain barrier (BBB) and enter the brain. As summarized in Table 7, a number of examples show concentrations in the brain that exceed 0.5 μM an hour after administration of a 5 mg/kg dose, with brain-to-plasma concentration ratios of ˜0.3 or higher.
Mouse brains were homogenized in 10 mM ammonium acetate, pH 5.7 (1:2; w/v) using a handheld sonic homogenizer. Mouse plasma was obtained from blood that was collected into a 1.5 ml tube containing 0.5M EDTA solution and which was centrifuged for 10 minutes at 4500 g at 4° C. Aliquots (50 μl) of brain homogenates (50% w/v in 100 mM NH4OAC pH 5.75) or plasma were mixed with 0.2 ml of acetonitrile, centrifuged at 15,000 g, and the resulting supernatant was used for subsequent LC-MS/MS analysis. The LC-MS/MS system was comprised of an Aquity UPLC and a TQ MS that was controlled using MassLynx software (Waters Corporation, Milford, Mass., USA). Compounds were detected using multiple reaction monitoring (MRM) of their specific collision-induced ion transitions. Samples were separated on an Aquity BEH C18 column (1.7 μm, 2.1×50 mm) at 35° C. Operation was in positive electrospray ionization mode, with mobile phase A of 0.1% (v/v) formic acid, and B of acetonitrile with 0.1% (v/v) formic acid. Injections of 5 μl were separated at a flow rate of 0.6 mL/min using a gradient from 5% to 95% B over two minutes, followed by wash and re-equilibration steps. The MS was operated with a desolvation temperature of 450° C. and a source temperature of 150° C. Desolvation and source nitrogen gas flows were 900 L/hr and 50 L/hr, respectively. Source and MS/MS voltages were optimized for each compound using the MassLynx auto tune utility. To account for possible matrix effects on analytes, standard curves were generated for each compound from brain homogenate and plasma samples that had compound added at 24, 240, 2400 and 24000 nM. The standard curve samples were extracted and analyzed in an identical fashion as the corresponding tissue-derived samples, and peak areas were plotted against concentration and a linear regression curve was used to obtain estimated concentrations of the tissue-derived samples using the peak areas. In all cases, the tissue-derived sample peak areas fell within the linear portion of standard curves that were prepared and analyzed concurrently with the samples.

[2] = tested on: acetyl-tubulin (AcTub) in HEK/QBI 293 cells; assay: Microtubule stabilization assay: acetyl-tubulin (AcTub) ELISA after compound treatment; format: cell-based; conditions: for AcTub elevation compared with epoD: at 100 nM (FIG. 1); for change in acetyl-tubulin (AcTub), in words: relative to vehicle-treated cells (FIG. 1, Tables 5 and 6)
Description: (§1) The MT-stabilizing properties of triazolopyrimidines was investigated in a cell-free MT-polymerization assay, as well in a cell-based assay (HEK/QBI 293 cells) that measures changes in acetyl-tubulin (AcTub), a biomarker of stable MTs. (Laferriere, N.; MacRae, T.; Brown, D. Tubulin synthesis and assembly in differentiating neurons. Biochemistry and Cell Biology 1997, 75, 103-117; Black, M.; Baas, P.; Humphries, S. Dynamics of alpha-tubulin deacetylation in intact neurons. J Neurosci 1989, 9, 358).
as §1, with “properties of additional triazolopyrimidines, phenylpyrimidines, and pyridazines was investigated” for “properties of triazolopyrimidines was investigated”, “well in the aforementioned cell-based assay” for “well in a cell-based assay”, “of stable MTs (Laferriere, N.;” for “of stable MTs. (Laferriere, N.;”
The HEK293 cell subclone, QBI293, was maintained in DMEM supplemented with 10% fetal calf or bovine serum, 1% penicillin/streptomycin antibiotic solution and 1% glutamine at 37° C. in 5% CO2. Cells were plated into 6-well plates at a density of 800,000 cells/well. […] Test compounds were added at multiple concentrations to the test wells and incubated for 4 h. Subsequently, the media was removed and the cells were washed with 1 ml of ice-cold phosphate-buffered saline (PBS). After removal of PBS, 0.2 ml of ice-cold RIPA (0.5% sodium deoxycholate, 0.1% SDS, 1% NP-40, 5 mM EDTA, pH 8.0) containing protease inhibitor mix (1 μg/ml each of pepstatin, leupeptin, TLCK, TPCK and trypsin inhibitor), 1 mM PMSF and 1 μM trichostatin A was added to the wells. The wells were then scraped using a cell scraper and pipetted into 1.5 ml microfuge tubes. The tubes were sonicated with a handheld sonicator at 20× on a power setting of 2, followed by centrifugation for 30 min at 15,000 rpm at 4° C. Supernatants were removed and quantified for protein concentration and the acetyl-tubulin levels were determined using an ELISA as described.
384-well plates were coated with 12G10α-tubulin antibody (Developmental Studies Hybridoma Bank at the University of Iowa; 10 μg/ml) in 30 μl of cold 0.1 M bicarbonate buffer. After overnight incubation at 4° C., the plates were washed with cold PBS, followed by the addition of Block-Ace solution and overnight incubation at 4° C. The blocking solution was removed and 10 μl of EC buffer (0.02 M sodium phosphate, pH 7.0, 2 mM EDTA, 0.4 M NaCl, 0.2% bovine serum albumin, 0.05% CHAPS, 0.4% BlockAce and 0.05% NaN3) was added to each well. Cell culture supernatants were diluted in EC buffer to final protein concentrations of 9, 3, 1.5 and 0.5 μg/30 μl, and 30 μl of each were added to wells in duplicate and plates were subsequently sealed. After overnight incubation at 4° C., the plates were aspirated and washed with cold PBS containing 0.05% Tween-20 and 0.05% thimerisol (PBS-Tween buffer), followed by addition of 30 μl/well of HRP-conjugated acetyl-tubulin antibody (6-11B-1 antibody from Sigma-Aldrich) that was prepared with a Peroxidase Labeling Kit following the manufacturer's instructions that was subsequently diluted 1:1000 in C buffer (0.02 M sodium phosphate, pH 7.0, 2 mM EDTA, 0.4 M NaCl, 1% bovine serum albumin and 0.05% thimerisol). The plates were incubated at room temperature for 4 h on a platform rocker, followed by washing with cold PBS-Tween buffer. Peroxidase substrate solution (30 μl) was added and the reaction was quenched after 5-10 min by addition of 30 μl of 10% phosphoric acid. Plates were read on a SpectraMax M5 plate reader at 450 nm. Because an acetyl-tubulin standard is not available, all data were normalized to a control treatment condition (e.g., no compound addition).

[3] = tested on: detyrosinated α-tubulin (GluTub); assay: Detyrosinated α-tubulin (GluTub) in the cell-based studies; conditions: data not shown
[4] = tested on: AcTub-positive MTs in HEK/QBI293 cells; assay: Acetyl tubulin immunofluorescence; format: cell-based; conditions: 4 h incubation
Description: The HEK293 cell subclone, QBI293, was plated onto poly-D-lysine-coated glass coverslips at 50,000 cells/ml in DMEM supplemented with 10% fetal calf or bovine serum, 1% penicillin/streptomycin antibiotic solution and 1% glutamine and maintained overnight at 37° C. in 5% CO2. The next day, cells were left untreated or were treated with 100 nM epothilone D, 100 nM CNDR-51533 or 1 μM colchicine. After an additional 4 h of incubation at 37° C. in 5% CO2, cells were washed twice with PBS, and then fixed for 15 min in PBS containing 4% paraformaldehyde. The cells were again washed twice with PBS, and permeabilized with 0.1% Triton X-100 in PBS for 15 min. Following the Triton X-100 treatment, the cells were washed twice in PBS, and treated with PBS containing 3% bovine serum albumin for 1 h. Acetyl-tubulin antibody was subsequently added (1:1000 dilution) and incubated for 1 h. Cells were then washed cells 3×5 min with 0.1% Triton X-100 in PBS, and secondary antibody (goat-anti-mouse labeled with Alexa fluor 488 at 1:1000) was added and allowed to incubate for 1 h. […] Finally, the cells were washed once with PBS, followed by H2O, and the cover slips were mounted onto slides with Fluoromount G. Images were acquired on a microscope equipped for fluorescence detection. […]

[5] = tested on: brain α-tubulin that is acetylated (AcTub); assay: Determination of brain acetyl-tubulin levels; format: in vivo, CD1 mice; conditions: wild-type mice, once-daily 1 mg/kg dose, 3 days (FIG. 14)
[6] = mouse, in vivo; cited from earlier work
[7] = brain, ip, read-out: Brain nM (SD)
[8] = plasma, ip, read-out: Plasma nM (SD)

Row | Molecule | concentration at 1 h [1, 7] [nM] | Brain/Plasma [1] | concentration at 1 h [1, 8] [nM] | change in acetyl-tubulin (AcTub), in words [2] | change in detyrosinated α-tubulin (GluTub) [3] | also measured
1 | C[C@H](Nc1c(-c2c(F)cc(OCCCN(C)C)cc2F)c(Cl)nc2ncnn12)C(F)(F)F [CNDR-51555, (S)-5-Chloro-6-(4-(3-(dimethylamino)propoxy)-2,6-difluorophenyl)-N-(1,1,1-trifluoropropan-2-yl)-[1,2,4]triazolo[1,5-a]pyrimidin-7-amine] | 1350 | 0.27 | 4930 |  |  | 
2 | C[C@H](Nc1nc(-c2ccccn2)nc(Cl)c1-c1c(F)cc(F)cc1F)C(F)(F)F [CNDR-51552, (S)-6-chloro-2-(pyridin-2-yl)-5-(2,4,6-trifluorophenyl)-N-(1,1,1-trifluoropropan-2-yl)pyrimidin-4-amine] | 1480 | 0.34 | 4320 |  |  | 
3 | CNCCCOc1cc(F)c(-c2c(Cl)nc3ncnn3c2NCC(F)(F)F)c(F)c1 [CNDR-51534, 5-Chloro-6-(2,6-difluoro-4-(3-(methylamino)propoxy)phenyl)-N-(2,2,2-trifluoroethyl)-[1,2,4]triazolo[1,5-a]pyrimidin-7-amine] |  |  |  | dose-dependent elevation in AcTub | significant increases of detyrosinated α-tubulin (GluTub) | AcTub elevation compared with epoD [2]: significantly more effective than epoD
4 | COc1cc2c(c(OC)c1OC)-c1ccc(OC)c(=O)cc1[C@@H](NC(C)=O)CC2 [colchicine] |  |  |  |  |  | AcTub immunofluorescence staining ([4]; 1 μM, data not shown): significant loss of AcTub staining
5 | C[C@H](Nc1nc(-c2cnccn2)nc(Cl)c1-c1c(F)cc(F)cc1F)C(F)(F)F [CNDR-51549, (S)-6-chloro-2-(pyrazin-2-yl)-5-(2,4,6-trifluorophenyl)-N-(1,1,1-trifluoropropan-2-yl)pyrimidin-4-amine] | 2870 | 0.58 | 4950 |  |  | AcTub levels in the brain [5]: increase of AcTub levels in the brains; also recorded: increase in the fraction of brain α-tubulin that is acetylated
6 | CNCCCOc1cc(F)c(-c2c(Cl)nc3ncnn3c2N[C@@H](C)C(F)(F)F)c(F)c1 [CNDR-51533, (S)-5-Chloro-6-(2,6-difluoro-4-(3-(methylamino)propoxy)phenyl)-N-(1,1,1-trifluoropropan-2-yl)-[1,2,4]triazolo[1,5-a]pyrimidin-7-amine, reference compound] |  |  |  | dose-dependent elevation in AcTub | significant increases of detyrosinated α-tubulin (GluTub) | AcTub elevation compared with epoD [2]: significantly more effective than epoD; AcTub immunofluorescence, MT structure ([4]; 100 nM, relative to control cells): large increase in highly organized, AcTub-positive MTs; crossing of the blood-brain barrier (BBB), previously described agents [6]: do not cross the BBB
7 | Fc1cc(F)c(-c2c(Cl)nc3ncnn3c2NCC(F)(F)F)c(F)c1 [CNDR-51539, 5-Chloro-N-(2,2,2-trifluoroethyl)-6-(2,4,6-trifluorophenyl)-[1,2,4]triazolo[1,5-a]pyrimidin-7-amine] |  |  |  | dose-dependent elevation in AcTub | significant increases of detyrosinated α-tubulin (GluTub) | 
8 | C[C@H](Nc1nc(-c2ccccn2)nc(Cl)c1-c1c(F)cc(OCCCN(C)C)cc1F)C(F)(F)F [CNDR-51561, (S)-6-Chloro-5-(4-(3-(dimethylamino)propoxy)-2,6-difluorophenyl)-2-(pyridin-2-yl)-N-(1,1,1-trifluoropropan-2-yl)pyrimidin-4-amine] | 701 |  | 2120 |  |  | Kp at 1 h ([1]; brain/plasma, ip): 0.33
9 | (S)-6-Chloro-5-(2,6-difluoro-4-(3-(methylamino)propoxy)phenyl)-2-(pyridin-2-yl)-N-(1,1,1-trifluoropropan-2-yl)pyrimidin-4-amine [CNDR-51562] |  |  |  |  |  | dose of maximal effect (AcTub increase) ([2]; 4 h treatment): 0.1 µM; Fold-Increase in AcTub ([2]; 4 h treatment, at the dose of maximal effect, relative to control): 6.2 fold
